Source: patent US7863465B2, “Antifungal agents” (Merck Sharp & Dohme Corp., priority 2006, dated 2011)

Molecular target: T1, glucan synthase (GS) prepared from Candida albicans MY1055 (Candida albicans, UniProt O13428)
T1 construct: Extraction of GS activity from membranes was performed at a protein concentration of 5 mg/mL in extraction buffer; endogenous in cells; host or cells: Candida albicans MY1055 (membranes, detergent extract, product entrapment)
Test: Glucan synthase inhibition (polymerization assay, 96-well, 3H-UDPG incorporation)
Type: biochemical
Conditions: glucan synthase from C. albicans MY1055
Experimental: The in vitro evaluation of glucan synthase inhibitory activity of compounds was measured in a polymerization assay in 96-well format. Each well contained 100 μL of ^3H-UDPG at 0.5 mM (6000 to 8000 dpm/nmol), 50 mM HEPES pH 7.5 (Sigma), 10% w/v glycerol (Sigma), 1.5 mg/mL bovine serum albumin (Sigma A 9647. Lot 44H0190), 25 mM KF (Fisher), 1 mM EDTA (Gibco Ultrapure), 25 μM GTP-γ-S, enzyme sufficient to give 3 to 6 nmoles incorporation during the 60 min incubation at 22° C., and test compound added from wells in 3-fold serial dilutions in 100% DMSO (1 μL/well). The reaction was stopped by the addition of 100 μL of 20% trichloroacetic acid. Plates were chilled for a minimum of 10 min, and precipitated glucan collected by filtration on GF/C plates (Packard Unifilter®-96), washed with 5 cycles of water (about 1 mL/well each cycle) using a Packard Filtermate Harvester. 40 μL/well scintillation fluid (Packard Ultima Gold TM-XR) was added and the sealed plates counted in a Wallac Beta counter in top-counting mode at an efficiency of approximately 40%.
Stock solutions were stored at 10 mg/mL in DMSO at −20° C. For each new enzyme preparation, the initial titration performed started at 1 mg/mL, which was prepared by making a 10-fold dilution in DMSO (5 μL to 50 μL). 40 μL of this stock was placed in column 12 of a round-bottomed 96-well microtiter plate. 40 μL DMSO was added to columns 1 to 11 in the same row and ten 3-fold serial dilutions performed, by transferring 20 μL from column 12 to column 11 etc., with 4 mixings before each transfer. No test compound was transferred to from column 2 to column 1. Duplicate aliquots of 1 μL of all 12 dilutions were then transferred to the side walls of a 96-well Bioblock 1.1 mL plate (Fisherbrand) to create two rows.
The results were tabulated and a standard plate background was subtracted and the net count transpose-pasted into a Prism file, with final compound concentrations used in ng/mL. Graphs were created in Prism software, using the average of two determinations, and using Prism's curve fitting program (sigmoidal dose response non-linear regression).
Routine analysis was performed with glucan synthase (GS) prepared from Candida albicans MY1055 by the following procedure: MY1055 was grown in 10 liters YPD medium (10 g yeast extract, 20 g tryptone, 20 g glucose per liter) with vigorous shaking at 30° C., to early stationary phase. Cells were harvested by centrifugation, the pellet was washed and frozen at −70° C. until breakage. Thawed pellets were shaken with an equal volume of breakage buffer (50 mM HEPES pH 7.4, 10% glycerol, 1 mM EDTA, 1 mM PMSF, 1 mM DTT) and 4 times their weight of 0.5 mm acid washed glass beads for 2 hours at 4° C. Extent of breakage was assessed visually at 40× magnification. For C. parapsilosis strains, shaking was extended to 3 hours to maximize breakage. After low speed centrifugation to remove cell debris, the supernatant was centrifuged at 100,000×g for 60 min. to separate membranes plus ribosomes from cytoplasmic components. Membranes were further washed two additional times with breakage buffer using the same centrifugation conditions and finally suspended in breakage buffer at 25 to 30 mg/mL protein (Biorad) for storage at −70° C. Extraction of GS activity from membranes was performed at a protein concentration of 5 mg/mL in extraction buffer (50 mM NaPO4 pH 7.5, 0.1 M KCl, 0.1M Na citrate, 20% glycerol, 5 μM GTP-γ-S, 1 mM DTT, 1 mM PMSF, 3 μg/mL pepstatin) plus 0.25% W1 by gentle mixing at 4° C. for 60 min, followed by centrifugation at 100,000×g for 60 min. After centrifugation, clear supernatant was removed from a pellet consisting of a hard layer usually with small amounts of gelatinous unextracted membranes above it. […]

T1 sequence (O13428 1-1897): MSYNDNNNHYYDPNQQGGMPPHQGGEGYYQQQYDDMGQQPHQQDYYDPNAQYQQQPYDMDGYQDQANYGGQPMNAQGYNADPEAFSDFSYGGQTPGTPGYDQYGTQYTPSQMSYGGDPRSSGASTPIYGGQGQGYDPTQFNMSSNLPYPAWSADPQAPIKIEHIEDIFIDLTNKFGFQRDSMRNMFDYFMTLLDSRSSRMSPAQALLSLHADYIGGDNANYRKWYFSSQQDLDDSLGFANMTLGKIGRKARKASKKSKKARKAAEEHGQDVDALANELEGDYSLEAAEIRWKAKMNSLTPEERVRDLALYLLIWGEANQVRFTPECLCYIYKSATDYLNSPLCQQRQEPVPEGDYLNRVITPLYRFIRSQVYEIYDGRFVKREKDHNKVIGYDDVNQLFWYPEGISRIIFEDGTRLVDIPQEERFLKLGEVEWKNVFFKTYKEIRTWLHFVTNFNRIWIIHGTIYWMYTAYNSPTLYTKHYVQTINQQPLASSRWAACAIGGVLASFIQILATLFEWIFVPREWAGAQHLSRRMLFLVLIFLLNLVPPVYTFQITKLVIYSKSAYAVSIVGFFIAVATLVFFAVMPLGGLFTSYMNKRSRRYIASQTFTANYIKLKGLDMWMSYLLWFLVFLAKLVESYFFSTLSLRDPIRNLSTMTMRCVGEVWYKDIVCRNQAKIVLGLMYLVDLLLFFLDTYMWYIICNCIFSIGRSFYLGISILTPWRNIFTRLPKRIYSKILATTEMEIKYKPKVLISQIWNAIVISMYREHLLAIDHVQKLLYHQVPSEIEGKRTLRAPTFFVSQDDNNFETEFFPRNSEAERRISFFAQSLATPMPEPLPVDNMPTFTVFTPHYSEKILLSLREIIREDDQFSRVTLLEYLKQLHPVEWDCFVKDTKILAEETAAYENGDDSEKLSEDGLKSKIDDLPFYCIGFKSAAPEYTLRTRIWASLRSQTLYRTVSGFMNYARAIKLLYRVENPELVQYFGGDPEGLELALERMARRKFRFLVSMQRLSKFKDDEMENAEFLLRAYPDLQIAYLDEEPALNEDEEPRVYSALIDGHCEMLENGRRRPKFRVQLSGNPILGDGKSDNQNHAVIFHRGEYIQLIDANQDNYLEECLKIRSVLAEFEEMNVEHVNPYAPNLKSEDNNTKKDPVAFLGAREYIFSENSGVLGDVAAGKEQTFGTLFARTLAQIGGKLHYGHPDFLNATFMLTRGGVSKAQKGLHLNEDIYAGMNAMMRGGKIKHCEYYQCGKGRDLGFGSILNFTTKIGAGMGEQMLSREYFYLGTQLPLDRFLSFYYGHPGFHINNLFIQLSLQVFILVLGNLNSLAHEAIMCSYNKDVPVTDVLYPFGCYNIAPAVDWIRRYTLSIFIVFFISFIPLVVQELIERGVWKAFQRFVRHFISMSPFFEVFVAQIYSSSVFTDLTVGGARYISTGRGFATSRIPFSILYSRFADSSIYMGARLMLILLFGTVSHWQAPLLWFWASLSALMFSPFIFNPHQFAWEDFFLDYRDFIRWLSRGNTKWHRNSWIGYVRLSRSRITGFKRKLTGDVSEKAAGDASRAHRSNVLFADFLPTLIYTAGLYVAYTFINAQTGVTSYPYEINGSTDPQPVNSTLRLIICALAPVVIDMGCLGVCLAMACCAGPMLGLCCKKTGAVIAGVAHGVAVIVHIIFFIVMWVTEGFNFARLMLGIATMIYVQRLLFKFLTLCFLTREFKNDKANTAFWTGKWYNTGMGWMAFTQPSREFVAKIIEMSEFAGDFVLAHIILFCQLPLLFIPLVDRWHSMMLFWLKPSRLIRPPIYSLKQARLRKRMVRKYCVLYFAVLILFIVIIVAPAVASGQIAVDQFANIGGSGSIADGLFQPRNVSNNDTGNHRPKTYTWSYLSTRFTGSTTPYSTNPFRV
T1 sequence (O42825 whole entry partner): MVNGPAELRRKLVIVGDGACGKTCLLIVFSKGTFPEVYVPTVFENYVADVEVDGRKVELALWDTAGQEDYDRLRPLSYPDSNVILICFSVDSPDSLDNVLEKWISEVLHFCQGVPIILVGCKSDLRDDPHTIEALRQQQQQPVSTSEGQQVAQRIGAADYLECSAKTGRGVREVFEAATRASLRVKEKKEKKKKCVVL

Row | SMILES | IC50 [nM]
1 | CC(=O)O[C@@H]1C[C@@]23COC[C@](C)([C@@H]2CC[C@H]2C3=CC(=O)[C@@]3(C)[C@H](C(=O)O)[C@@](C)([C@H](C)C(C)C)CC[C@]23C)[C@H]1OCC(C)NCc1ccc(CO)o1 (stereo partly drawn) [Example 71, (1S, 2R, 3R, 4aR, 6aS, 7R, 8R, 10aR, 10bR, 12aR)-3-(acetyloxy)-2-{2-[(5-hydroxymethylfuran-2-ylmethyl)-amino]-propoxy}-8-[(1R)-1,2-dimethylpropyl]-1,6a,8,10a-tetramethyl-6-oxo-1,3,4,6,6a,7,8,9,10,10a,10b,11, 12,12a-tetradecahydro-2H-1,4a-(methanooxymethano)chrysene-7-carboxylic acid] | 343
2 | CCCN(CCC)C(CC)COC1C(OC(C)=O)CC23COCC1(C)C2CCC1C3=CC(=O)C2(C)C(C(=O)O)C(C)(C(C)C(C)C)CCC12C [Example 81, (1S, 2R, 3R, 4aR, 6aS, 7R, 8R, 10aR, 10bR, 12aR)-3-(acetyloxy)-2-(2-dipropylaminobutoxy)-8-[(1R)-1,2-dimethylpropyl]-1,6a,8, 10a-tetramethyl-6-oxo-1,3,4,6,6a,7,8,9,10,10a, 10b,11,12,12a-tetra decahydro-2H-1,4a-(methanooxymethano) chrysene-7-carboxylic acid] | 497
3 | CC(=O)O[C@@H]1C[C@@]23COC[C@](C)([C@@H]2CC[C@H]2C3=CC(=O)[C@@]3(C)[C@H](C(=O)O)[C@@](C)([C@H](C)C(C)C)CC[C@]23C)[C@H]1OCC(C(C)C)N1CCCCC1 (stereo partly drawn) [Example 89, (1S, 2R, 3R, 4aR, 6aS, 7R, 8R, 10aR, 10bR, 12aR)-3-(acetyloxy)-2-(3-methyl-2-piperidin-1-ylbutoxy)-8-[(1R)-1,2-dimethylpropyl]-1,6a,8, 10a-tetramethyl-6-oxo-1,3,4,6,6a,7,8,9,10,10a, 10b,11,12,12a-tetra decahydro-2H-1,4a-(methanooxymethano) chrysene-7-carboxylic acid] | 166
4 | CC(=O)O[C@@H]1C[C@@]23COC[C@@](C)([C@@H]2CC[C@H]2C3=CC(=O)[C@@]3(C)[C@H](C(=O)O)[C@@](C)([C@H](C)C(C)C)CC[C@]23C)[C@H]1OCC(C)(C)N(C)C [Example 114, (1S,2R,3R,4aR,6aS,7R,8R,10aR,10bR,12aR)-3-(acetyloxy)-2-(2-diamino-2-methylpropoxy)-8-[(1R)-1,2-dimethylpropyl]-1,6a,8,10a-tetramethyl-6-oxo-1,3,4,6,6a,7,8,9,10,10a,10b,11,12,12a-tetradecahydro-2H-1,4a-(methanooxymethano)chrysene-7-carboxylic acid] | 80.8
5 | CC(=O)O[C@@H]1C[C@@]23COC[C@@](C)([C@@H]2CC[C@H]2C3=CC(=O)[C@@]3(C)[C@H](C(=O)O)[C@@](C)([C@H](C)C(C)C)CC[C@]23C)[C@H]1OC[C@@](C)(N)C(C)C [Example 148, (1S,2R,3R,4aR,6aS,7R,8R,10aR,10bR,12aR)-3-acetoxy-2-[[(2S)-2-amino-2,3-dimethylbutyl]oxy]-8-[(1R)-1,2-dimethylpropyl]-1,6a,8,10a-tetramethyl-6-oxo-1,3,4,6,6a,7,8,9,10,10a,10b,11,12,12a-tetradecahydro-2H-1,4a-(methanooxymethano)chrysene-7-carboxylic acid] | 20.2
6 | CC(=O)O[C@@H]1C[C@@]23COC[C@@](C)([C@@H]2CC[C@H]2C3=CC(=O)[C@@]3(C)[C@H](C(=O)O)[C@@](C)([C@H](C)C(C)C)CC[C@]23C)[C@H]1OC[C@](C)(C(C)C)N(C)C [Example 150, (1S,2R,3R,4aR,6aS,7R,8R,10aR,10bR,12aR)-3-(acetyloxy)-2-[(2S)-2-dimethylamino-2,3-dimethylbutyloxy]-8-[(1R)-1,2-dimethylpropyl]-1,6a,8,10a-tetramethyl-6-oxo-1,3,4,6,6a,7,8,9,10,10a,10b,11,12,12a-tetradecahydro-2H-1,4a-(methanooxymethano)chrysene-7-carboxylic acid] | 20.8

Continued by falling IC50, values first:

Row | IC50 [nM] | SMILES
7 | 205 | CC(=O)O[C@@H]1C[C@@]23COC[C@@](C)([C@@H]2CC[C@H]2C3=CC(=O)[C@@]3(C)[C@H](C(=O)O)[C@@](C)([C@H](C)C(C)C)CC[C@]23C)[C@H]1OCC(CN)CN(C)C (stereo partly drawn) [Example 68, (1S,2R,3R,4aR,6aS,7R,8R,10aR,10bR,12aR)-3-(acetyloxy)-2-(2-aminomethyl-3-dimethylaminopropoxy)-8-[(1R)-1,2-dimethylpropyl]-1,6a,8,10a-tetramethyl-6-oxo-1,3,4,6,6a,7,8,9,10,10a,10b,11,12,12a-tetradecahydro-2H-1,4a-(methanooxymethano)chrysene-7-carboxylic acid]
8 | 161 | COCC(CO[C@H]1[C@H](OC(C)=O)C[C@@]23COC[C@]1(C)[C@@H]2CC[C@H]1C3=CC(=O)[C@@]2(C)[C@H](C(=O)O)[C@@](C)([C@H](C)C(C)C)CC[C@]12C)N(C)C (stereo partly drawn) [Example 65, (1S,2R,3R,4aR,6aS,7R,8R,10aR,10bR,12aR)-3-(acetyloxy)-2-(2-dimethylamino-3-methoxypropoxy)-8-[(1R)-1,2-dimethylpropyl]-1,6a,8,10a-tetramethyl-6-oxo-1,3,4,6,6a,7,8,9,10,10a,10b,11,12,12a-tetradecahydro-2H-1,4a-(methanooxymethano)chrysene-7-carboxylic acid]
9 | 155 | CC(=O)O[C@@H]1C[C@@]23COC[C@](C)([C@@H]2CC[C@H]2C3=CC(=O)[C@@]3(C)[C@H](C(=O)O)[C@@](C)([C@H](C)C(C)C)CC[C@]23C)[C@H]1OCCCN [Example 109, (1S, 2R, 3R, 4aR, 6aS, 7R, 8R, 10aR, 10bR, 12aR)-3-(acetyloxy)-2-(3-aminopropoxy)-8-[(1R)-1,2-dimethylpropyl]-1,6a,8,10a-tetramethyl-6-oxo-1,3,4,6,6a,7,8,9, 10,10a,10b,11,12,12a-tetradeca hydro-2H-1,4a-(methanooxymethano) chrysene-7-carboxylic acid]
10 | 91.2 | CCC(C)(CO[C@H]1[C@H](OC(C)=O)C[C@@]23COC[C@]1(C)[C@@H]2CC[C@H]1C3=CC(=O)[C@@]2(C)[C@H](C(=O)O)[C@@](C)([C@H](C)C(C)C)CC[C@]12C)N(C)C (stereo partly drawn) [Example 128, (1S, 2R, 3R, 4aR, 6aS, 7R, 8R, 10aR, 10bR, 12aR)-3-(acetyloxy)-2-(2-dimethylamino-2-methylbutyloxy)-8-[(1R)-1,2-dimethylpropyl]-1,6a,8,10a-tetramethyl-6-oxo-1,3,4,6,6a,7,8,9,10, 10a,10b,11,12,12a-tetradecahydro-2H-1,4a-(methanooxymethano)chrysene-7-carboxylic acid]
11 | 19.8 | CN[C@](C)(CO[C@H]1[C@H](OC(C)=O)C[C@@]23COC[C@@]1(C)[C@@H]2CC[C@H]1C3=CC(=O)[C@@]2(C)[C@H](C(=O)O)[C@@](C)([C@H](C)C(C)C)CC[C@]12C)C(C)C [Example 149, (1S,2R,3R,4aR,6aS,7R,8R,10aR,10bR,12aR)-3-(acetyloxy)-2-[(2S)-2-methylamino-2,3-dimethylbutyloxy]-8-[(1R)-1,2-dimethylpropyl]-1,6a,8,10a-tetramethyl-6-oxo-1,3,4,6,6a,7,8,9,10,10a,10b,11,12,12a-tetradecahydro-2H-1,4a-(methanooxymethano)chrysene-7-carboxylic acid]
